“And” between values parts separate entries of the source, which are not always exact repeats. Equal entries are not always repeated.
Legend:
[1] = test system: Salmonella minnesota ReLPS sensitized sheep erythrocytes; assay: LPS hemagglutination assay (MAC); format: binding
Method: For hemagglutination assays, erythrocytes were sensitized with LPS as follows. One ml of 1% erythrocyte suspension (human 0 type, C3H/HeN mouse or sheep) was mixed with 0.2 ml of LPS solution and incubated at 37° C. for 30 min, followed by washing with phosphate buffered saline (PBS), and then the concentration of suspension was adjusted to 1.0%. In the case of S-LPS, the solution was heated at 100° C. for 1 hour before sensitization of erythrocytes. […] Activity of CAP was expressed as a minimum agglutinating concentration (MAC) of CAP. According to the method of Kirikae et al. (1986) Microbiol. Immunol. 30:269-274, 50 μl of 2-fold serial dilution of Re-LPS was added to 50 μl of 1.0% rabbit erythrocyte suspension, and incubated at 37° C. for 3, hour. Minimum agglutinating concentration of Re-LPS was expressed as 1 HA unit.

[2] = test system: RAW 264.7 cells; format: cell-based, murine; conditions: for Inhibition of LPS-induced RNI-IC50: LPS-induced (2.5 ng/ml LPS in FIG. 6B)
Method: From the sequence of the CAP18 cDNA, it was apparent that the putative N-terminal peptide of CAP18 was in fact an internal fragment of the CAP18 protein. We therefore tried to reconfirm the original protein sequence. Neutrophil-derived heparin bound cationic proteins were prepared as described above and applied to a C18 reverse phase HPLC (FIG. 1). We sequenced the major peaks. Peaks at fractions 14.5 and 15.2 correspond to defensins MCP1 and MCP2 (Territo et al. (1989) J. Clin. Invest. 84:2017-2019), respectively. Fraction 25.8 is macrophage related protein 14 (MRP14) (Odink et al. (1987) Nature 330:80-82). The fraction at 20.3 minutes corresponds to a fragment of CAP18 of approximately 4-5 kD. […] The murine macrophage cell line RAW 264.7 (obtained from ATCC) and thioglycolate-elicited murine peritoneal exudate cells are used to produce RNI. Cells are cultured at 1×10^6 /ml. in RPMI-1640 +2.5% FCS in 24 well plates in the presence or absence of different concentrations of LPS or murine rlFNγ. After 24 hr. incubation at 37° C. the cell free supernatant is collected and tested for the presence of RNI. Accumulation of nitrite in the medium is measured by a colorimetric assay based on the Griess reaction (Green et al. (1982) Anal. Biochem. 126:11) using sodium nitrite as standards. Sample (50 μl) is mixed with 50 μl of Griess reagent (1% sulfanilamide, 0.1% naphthalene diamine dihydrochloride, 2.5% H3 PO4) and after 10 min. at room temperature absorbance is read at 570 nm.

[3] = test system: Salmonella minnesota Re; assay: Antibacterial CFU assay; conditions: FIG. 6C
[4] = test system: Salmonella typhimurium; assay: Antibacterial CFU assay; conditions: for anti-bacterial activity (CFU), words: FIG. 6D; for effect on CFU at high concentrations alone and in various combinations: FIG. 6F
[5] = test system: thioglycolate-stimulated murine peritoneal macrophages; assay: LPS-induced tissue factor generation by macrophages; format: cell-based; conditions: peptide 1 μg/ml; 6 hr; FIG. 12
Method: […] Cells were cultured for 6 hours prior to assay of tissue factor by clotting assay.
[…] Production of tissue factor after 6 hr. was measured by clotting assay. […] In the absence of LPS no tissue factor is synthesized by these cells.

[6] = molecular target: T1, purified human factor X (human, UniProt P00742); assay: cell-based or functional assay
[7] = molecular target: purified human factor Xa (human, UniProt P00742); assay: cell-based or functional assay
[8] = molecular target: T1, purified human factor X; assay: cell-based or functional assay; remark: listed apart in the source
[9] = molecular target: prothrombin (factor II)
[10] = test system: cells; assay: Effect of CAP-37 on LPS-induced tissue factor generation; format: cell-based; conditions: for Tissue factor, figure in parentheses (relative to control = 1.0) / Tissue Factor / Activity: CAP-37 15 HA; for Activity: LPS alone = 100
Method: Table 6 presents a comparison of the effect of RNIP, CAP18, and defensins HP-1 and HP-2 (Territo et al. (1989) J. Clin. Invest. 84:2017-2019) on LPS-induced tissue factor generation. Tissue factor assays were performed as follows. Mouse peritoneal cells were elicted with an intraperitoneal injection of thioglycolate medium and harvested 5-days later by irrigation with pyrogen-free saline. The cells were washed with RPMI 1640 medium, counted and resuspended at a concentration of 1.5-2.0×10^6 /ml in serum-free RPMI medium containing glutamine (0.29 mg/ml), penicillin (50 units/ml) and streptomycin (50/ml). Adherent cells were prepared by incubating 10 ml of a cell suspension (in RPMI 1640 media in sterile culture bottle (Nunclon, 50 ml, Inter Med) for 60 min. at 37° C. in a 5% CO2 atmosphere. The plastic adherent cells were recovered by scraping of the bottle with a sterile rubber policeman. The adherent cells were then washed twice with RPMI media, resuspended in serum-free medium (1×10^6 /ml) in culture tube (Nunc cryotube, Inter Med), and stimulated with graded doses of LPS for 6 hr. at 37° C. in a 5% CO2. The cell suspension was centrifuged and cell pellet was frozen at -80° C. until clotting assays were run.
Veronal buffered saline (VBS) was added to the cell pellet, lysed by 3 cycles of freeze/thaw and sonicated for 10 sec with a hand-held sonicator microbe (Handy Sonic, model UR-20P, Tomy Seiko LTD, Tokyo). Tissue factor activity was tested in modified unactivated partial thromboplastin time (7). One tenth ml of cell lysate (1×10^6 /ml) was preincubated with mouse plasma at 37° C. for 3 min. Then 0.1 ml of 25 mM-CaCl2 which contains phospholipid was added to the mixture and clotting time was measured using a fibrometer (Bio Quest Division, Becton Dickinson, Cokeysville, USA). A standard curve obtained from serial two-fold dilutions of rabbit brain thromboplastic (Simplastin, Ono Pharmaceutical Co.) was used to transpose tissue factor activity into arbitrary tissue factor units (1 μg/ml) suspension of rabbit brain was assigned a value of 1,000 units).
.dagger. LPS was incubated with CAP37 at 37° C. for 2 hours, and
the mixture was added to cells, then cultured for 6 hours.

## 21-1: synthetic rabbit RNIP-derived fragment, amino acids 135-151 of SEQ ID NO:4 (GLRKRLRKFRNKIKEKL)
[1]
  Hemagglutination MAC (minimum agglutinating concentration): > 125 µg/mL
[2]
  Inhibition of LPS-induced RNI-IC50: > 2 µg/mL

## 32-1: synthetic rabbit RNIP-derived fragment, amino acids 135-143 of SEQ ID NO:4 (GLRKRLRKF)
[1]
  Hemagglutination MAC (minimum agglutinating concentration): > 125 µg/mL
[3]
  anti-bacterial activity (CFU), words: not active
[4]
  anti-bacterial activity (CFU), words: not active
  effect on CFU at high concentrations alone and in various combinations: No effect
[4]; FIG. 6G
  effect of pretreatment with peptide 32-1 on bacterial killing by peptide 197: no inhibition or augmentation
[5]
  inhibition of LPS induced tissue factor: fail to inhibit
[2]
  Inhibition of LPS-induced RNI-IC50: > 2 µg/mL

## 34-1: synthetic rabbit RNIP-derived fragment, amino acids 140-166 of SEQ ID NO:4 (LRKFRNKIKEKLKKIGQKIQGLLPKLA)
[1]
  Hemagglutination MAC (minimum agglutinating concentration): > 125 µg/mL
[2]
  Inhibition of LPS-induced RNI-IC50: > 2 µg/mL

## 50-1: synthetic rabbit RNIP-derived fragment, amino acids 147-171 of SEQ ID NO:4 (IKEKLKKIGQKIQGLLPKLAPRTDY)
[1]
  Hemagglutination MAC (minimum agglutinating concentration): > 125 µg/mL
[2]
  Inhibition of LPS-induced RNI-IC50: 0.3 µg/mL

## 50-2: synthetic rabbit RNIP-derived fragment, amino acids 147-171 of SEQ ID NO:4 (same range printed as 50-1) (IKEKLKKIGQKIQGLLPKLAPRTDY)
[1]
  Hemagglutination MAC (minimum agglutinating concentration): > 125 µg/mL
[3]
  anti-bacterial activity (CFU), words: not active
[4]
  anti-bacterial activity (CFU), words: not active
  effect on CFU at high concentrations alone and in various combinations: No effect
[5]
  inhibition of LPS induced tissue factor: fail to inhibit
[2]
  Inhibition of LPS-induced RNI-IC50: 0.3 µg/mL

## 52-1: synthetic rabbit RNIP-derived fragment, amino acids 143-169 of SEQ ID NO:4 (FRNKIKEKLKKIGQKIQGLLPKLAPRT)
[1]
  Hemagglutination MAC (minimum agglutinating concentration): > 125 µg/mL
[2]
  Inhibition of LPS-induced RNI-IC50: > 2 µg/mL

## 52-2: synthetic rabbit RNIP-derived fragment, amino acids 143-170 of SEQ ID NO:4 (FRNKIKEKLKKIGQKIQGLLPKLAPRTD)
[1]
  Hemagglutination MAC (minimum agglutinating concentration): > 125 µg/mL
[2]
  Inhibition of LPS-induced RNI-IC50: > 2 µg/mL

## 52-3: synthetic rabbit RNIP-derived fragment, amino acids 132-171 of SEQ ID NO:4 as printed (EPTGLRKRLRKFRNKIKEKLKKIGQKIQGLLPKLAPRTDY)
[1]
  Hemagglutination MAC (minimum agglutinating concentration): > 125 µg/mL
[2]
  Inhibition of LPS-induced RNI-IC50: > 2 µg/mL

## 54-1: synthetic rabbit RNIP-derived fragment, amino acids 139-170 of SEQ ID NO:4 (RLRKFRNKIKEKLKKIGQKIQGLLPKLAPRTD)
[1]
  Hemagglutination MAC (minimum agglutinating concentration): > 125 µg/mL
[2]
  Inhibition of LPS-induced RNI-IC50: > 2 µg/mL

## 54-2: synthetic rabbit RNIP-derived fragment, amino acids 139-171 of SEQ ID NO:4 (RLRKFRNKIKEKLKKIGQKIQGLLPKLAPRTDY)
[1]
  Hemagglutination MAC (minimum agglutinating concentration): > 125 µg/mL
[2]
  Inhibition of LPS-induced RNI-IC50: > 2 µg/mL

## 187: synthetic rabbit RNIP-derived fragment, amino acids 151-171 of SEQ ID NO:4 (LKKIGQKIQGLLPKLAPRTDY) [compound 187]
[1]
  Hemagglutination MAC (minimum agglutinating concentration): > 125 µg/mL
[2]
  activity in hemagglutination and inhibition of LPS-induced RNI: inactive
  Inhibition of LPS-induced RNI-IC50: > 10 µg/mL

## polymyxin B [reference compound]
[2]; LPS 5ng/ml, FIG. 4
  inhibition of LPS-induced RNI production: inhibition

B1: synthetic rabbit RNIP peptide 197 (reactive nitrogen inhibitory peptide, C-terminal 37 amino acids of rabbit CAP18) (peptide)
peptide: GLRKRLRKFRNKIKEKLKKIGQKIQGLLPKLAPRTDY
[6]
  IC50, RVV activation of factor X to Xa (synthetic substrate): 6.7 µg/ml and 1.1 µM
[7]
  IC50, Xa-induced clotting: 2.7 µg/ml and 0.5 µM
[8]
  IC50, Russell Viper Venom induced clotting: 0.7 µg/ml and 0.1 µM
[9]
  IC50, prothrombin activation by factor Xa (synthetic substrate): 50 nM

B2: CAP-37: another cationic peptide CAP37 (azurocidin) (Morgan et al. 1991) (protein, UniProt P20160 27-248, looked up)
Azurocidin: IVGGRKARPRQFPFLASIQNQGRHFCGGALIHARFVMTAASCFQSQNPGVSTVVLGAYDLRRRERQSRQTFSISSMSENGYDPQQNLNDLMLLQLDREANLTSSVTILPLPLQNATVEAGTRCQVAGWGSQRSGGRLSRFPRFVNVTVTPEDQCRPNNVCTGVLTRRGGICNGDGGTPLVCEGLAHGVASFSLGPCGRGPDFFTRVALFRDWIDGVLNNPGP
[10]
  inhibition of tissue factor generation: unable to inhibit
[10]; LPS 0.1 μg/ml
  Tissue factor, figure in parentheses (relative to control = 1.0): 2.3
  Activity: 93.0
[10]; LPS 0.1 μg/ml, LPS alone 412 ± 30
  Tissue Factor: 383 ± 307 units/1 × 10^5 cells
[10]; LPS 1.0 μg/ml
  Tissue factor, figure in parentheses (relative to control = 1.0): 3.9
  Activity: 93.6
[10]; LPS 1.0 μg/ml, LPS alone 692 ± 27
  Tissue Factor: 648 ± 343 units/1 × 10^5 cells
[10]; no LPS
  Tissue factor, figure in parentheses (relative to control = 1.0): 1.1
[10]; no LPS, control 168 ± 95
  Tissue Factor: 183 ± 67 units/1 × 10^5 cells

B3: synthetic rabbit RNIP-derived peptide 36-1 (peptide)
peptide: GLRKRLRKFRNKIKEKLKKIGQKIQGLLPKLA
[6]
  IC50, RVV activation of factor X to Xa (synthetic substrate): 10 µg/ml and 1.9 µM
  IC50, factor X activation by tissue factor and factor VII (synthetic substrate): 100 nM
[7]
  IC50, Xa-induced clotting: 2.2 µg/ml and 0.4 µM
[8]
  IC50, Russell Viper Venom induced clotting: 0.9 µg/ml and 0.2 µM
[9]
  IC50, prothrombin activation by factor Xa (synthetic substrate): < 30 nM
